Converted amounts (≈) assume the structure as drawn. Read-outs that look alike come from different tables or passages of the source.
Assays:
Bacillus subtilis [1] = experiment: MIC by microdilution (CLSI); assay type: cell-based; conditions: read-out: Minimum inhibitory concentration (MIC)
Description: (§1) In brief, a defined weight for each selected compound was dissolved in dimethylsulphoxide (DMSO) and used as a stock solution[29].

Klebsiella pneumonia [2] = experiment: MIC by microdilution (CLSI); assay type: cell-based; conditions: Klebsiella pneumoniae, read-out: Minimum inhibitory concentration (MIC)
Description: as §1

Pseudomonas aeruginosa [3] = experiment: MIC by microdilution (CLSI); assay type: cell-based; conditions: read-out: Minimum inhibitory concentration (MIC)
Description: as §1

Staphylococcus aureus [4] = experiment: MIC by microdilution (CLSI); assay type: cell-based; conditions: read-out: Minimum inhibitory concentration (MIC)
Description: as §1

Candida albicans [5] = experiment: Agar well diffusion; assay type: cell-based; conditions: read-out: Inhibition Zone
Text: (§2) The antimicrobial efficiency of the synthesized unsymmetrical carbamide derivatives was screened using standard clinical pathogens derived from Department of Microbiology and Immunology, Faculty of Medicine (Boys), Al-Azhar University. The tested microbial pathogens used in this study were as follows, two Gram-positive bacteria (Bacillus subtilis, Staphylococcus aureus), two Gram-negative bacteria (Pseudomonas aerginousea, klebsiella pneumoniae) and two fungi (Candida albicans, Aspergillus fumgitus). Before each antimicrobial examination, pre-activation of each microbial pathogen was implemented using specific growth conditions. For bacterial ones, preinoculum was prepared using Nuitrent broth medium (Codalab, Spain) at 37 °C for 24 h. while the fungal pathogens were activated using Potato Dextrose broth (Codalab, Spain) at 28 °C for 48 h. Consequently, each tested pathogen justified its inoculum size based on Colony Forming Units (CFU) to be closed to […] during all antimicrobial tests.

Aspergillus fumagitus [6] = experiment: Agar well diffusion; assay type: cell-based; conditions: read-out: Inhibition Zone
Text: as §2

[7] = test system: HCT-116 (human colon cancer); experiment: MTT cytotoxicity assay; assay type: cell-based; conditions: for IC50: HCT-116, MTT
Description: (§3) The MTT 3-(4,5-dimethylthiazol-2-yl)-2,5-diphenyl-tetrazolium bromide (Bio Basic Canada Inc. Toronto, Canada) assay was used to assess cell viability. The procedures were carried out in a biosafety class II sterile laminar air flow cabinet (Baker, SG403INT; Sanford, ME, USA). […] Cells were seeded at a density of (10^4 cells/well) into 96-well micro titer polypropylene plates and left to adhere for 24 h. The media was aspirated and the test chemicals were given to the cells in a single dose of 100 µM in DMSO. After 48 h of incubation, 40 µL of MTT salt ([…]) was applied to each well. […] Instead of the tested substances, the medium was applied to the untreated cells (negative control). […] The testing substance was dissolved in dimethylsulfoxide (DMSO), and its final concentration in the cells was less than 0.2%. The solvent concentration was the same for all medications and between the control and drug treatments at the same dilution.

HCT-116 cells [8] = experiment: Cell cycle analysis by flow cytometry (PI staining); assay type: cell-based, human
Description: The ethanol-suspended cells were centrifuged and re-suspended in 5 mL 1 × DPBS, then centrifuged again before being re-suspended in 1 mL of PI staining solution. The stained cells were kept in the dark at room temperature for 30 min before being transferred to the CytoFLEX Flow Cytometer to measure their fluorescence. […] BECKMAN COULTER Inc., Cairo, Egypt, Cat. No. 4238055-CB was used in this assay.

HCT-116 cells [9] = experiment: Annexin V-FITC/PI necrosis cell apoptosis assay; assay type: cell-based, human; conditions: % of population
Description: (§4) The levels of necrosis and apoptosis in cells were determined by CytoFLEX Flow Cytometer. A total of 1 × 10^6 cells were washed in 1 × DPBS, and then were centrifuged at 500 × ϲ for 5 min. 1 μL of annexin V-FITC solution and 5 μL of dissolved PI were added to 100 μL of the cell suspensions that kept on ice and were incubated for 15 min in the dark. Cells were then analyzed by the CytoFLEX Flow Cytometer (Beckman Coulter Life Sciences, USA) and the percentage of apoptotic cells was determined using CytExpert Software.

[10] = test system: MCF-7 (human breast cancer); experiment: MTT cytotoxicity assay; assay type: cell-based; conditions: for IC50: MTT
Description: as §3, with “The media was aspirated and the test chemicals were given to the cells in a single dose of 100 µM in DMSO.” left out

[11] = test system: BJ-1 (human normal skin fibroblast cells); experiment: MTT cytotoxicity assay; assay type: cell-based; conditions: BJ-1 normal cells, 100 µM
Description: as §3

MTT cytotoxicity assay = assay type: cell-based, human; conditions: human, BJ-1 normal cells
Description: as §3

Bacillus subtilis [12] = experiment: Agar well diffusion; assay type: cell-based; conditions: read-out: Inhibition Zone
Text: as §2, with “For bacterial ones, preinoculum was prepared using Nuitrent broth medium (Codalab, Spain) at 37 °C for 24 h. while the fungal pathogens were activated using Potato Dextrose broth (Codalab, Spain) at 28 °C for 48 h.” left out

Klebsiella pneumonia [13] = experiment: Agar well diffusion; assay type: cell-based; conditions: Klebsiella pneumoniae, read-out: Inhibition Zone
Text: as §2, with “For bacterial ones, preinoculum was prepared using Nuitrent broth medium (Codalab, Spain) at 37 °C for 24 h. while the fungal pathogens were activated using Potato Dextrose broth (Codalab, Spain) at 28 °C for 48 h.” left out

Pseudomonas aeruginosa [14] = experiment: Agar well diffusion; assay type: cell-based; conditions: read-out: Inhibition Zone
Text: as §2, with “For bacterial ones, preinoculum was prepared using Nuitrent broth medium (Codalab, Spain) at 37 °C for 24 h. while the fungal pathogens were activated using Potato Dextrose broth (Codalab, Spain) at 28 °C for 48 h.” left out

Bacillus subtilis [15] = experiment: Lipid peroxidation (LPO) MDA-TBA assay of bacterial cell membrane; assay type: cell-based; conditions: overnight incubation, MDA-TBA at 532 nm
Description: (§5) Lipid peroxidation of bacterial cell membranes was a remarkable tool indicating the oxidative stress that was caused by the tested compounds. The lipid peroxidation colorimetric assay kit was used for this purpose. […]. […] Briefly, each tested compound was incubated with each bacterial pathogen overnight under shaking and then 1 mL of the treated bacterial cell was vigorously mixed with 300 μL MDA lysis buffer at 4 °C. The addition of 3 μL of Butylated hydroxytoluene (BHT) was then performed to avoid the pigment interference that resulted from the decomposition of lipophilic peroxides. Thereafter, samples were separated by centrifugation at 8000 rpm for 10 min, and the insoluble substances were discarded. Finally, 200 μL of the clear supernatant was mixed with 600 μL of the TBA solution at 95 °C for 60 min. Samples were then cooled at room temperature, and the developed pink color was determined at 532 nm using a Spectrophotometer (Agilent Cary 100, Germany). The positive control was also prepared using 5% of Hydrogen peroxide and treated each bacterial pathogen for 20 min. The noticed increase in the lipid peroxidation efficiency was expressed from the following equation: Lipidperoxidationefficiency%=NC-NS/NC×100. where NC is the absorbance of lipid peroxidation in the untreated bacterial cells and NS is the absorbance of lipid peroxidation in the treated bacterial cells.

Klebsiella pneumonia [16] = experiment: as above; assay type: cell-based; conditions: overnight incubation, MDA-TBA at 532 nm
Description: as §5

Pseudomonas aeruginosa [17] = experiment: as above; assay type: cell-based; conditions: overnight incubation, MDA-TBA at 532 nm
Description: as §5

Staphylococcus aureus [18] = experiment: as above; assay type: cell-based; conditions: overnight incubation, MDA-TBA at 532 nm
Description: as §5

MCF-7 cells = experiment: Annexin V-FITC/PI necrosis cell apoptosis assay; assay type: cell-based, human; conditions: % of population
Description: as §4

Candida albicans [19] = experiment: MIC by microdilution (CLSI); assay type: cell-based; conditions: read-out: Minimum inhibitory concentration (MIC)
Description: (§6) For this purpose, serial dilution of the potent compounds was carried out to obtain the desired concentrations (i.e. 10–400 µg/mL). In brief, a defined weight for each selected compound was dissolved in dimethylsulphoxide (DMSO) and used as a stock solution[29]. The determination of the MIC value for each targeted compound was known as the lowest concentration of each sample that yielded a minimum number of colony-forming units (CFU) compared to the untreated samples[28].

Aspergillus fumagitus [20] = experiment: MIC by microdilution (CLSI); assay type: cell-based; conditions: read-out: Minimum inhibitory concentration (MIC)
Description: as §6

Staphylococcus aureus [21] = experiment: Agar well diffusion; assay type: cell-based
Text: as §2, with “For bacterial ones, preinoculum was prepared using Nuitrent broth medium (Codalab, Spain) at 37 °C for 24 h. while the fungal pathogens were activated using Potato Dextrose broth (Codalab, Spain) at 28 °C for 48 h.” left out

[22] = Homo sapiens, MCF7, 48 h, MCF-7, 48 h
[23] = Aspergillus fumagitus, 20 µg/mL
[24] = Homo sapiens, MCF7, MCF-7, single dose 100 µM, 48 h, read-out: Cytotoxicity (%)
[25] = HCT-116, single dose 100 µM, 48 h, read-out: Cytotoxicity (%)
[26] = BJ-1 normal skin fibroblast cells

Row | SMILES | MIC (Bacillus subtilis [1]) [µg/mL] | MIC (Klebsiella pneumonia [2]) [µg/mL] | MIC (Pseudomonas aeruginosa [3]) [µg/mL] | MIC (Staphylococcus aureus [4]) [µg/mL] | IC50 ([7]; 48 h) [µM] | melting point [°C] | IC50 [10, 22] [µM] | zone of inhibition at 20 µg/mL (Candida albicans [5]; 20 µg/mL) [mm] | zone of inhibition at 20 µg/mL (Aspergillus fumagitus [6]; [23]) [mm] | MIC (Candida albicans [19]) [µg/mL] | MIC (Aspergillus fumagitus [20]) [µg/mL] | zone of inhibition at 20 µg/mL (Bacillus subtilis [12]; 20 µg/mL) [mm] | zone of inhibition at 20 µg/mL (Klebsiella pneumonia [13]; Klebsiella pneumonia, 20 µg/mL) [mm] | zone of inhibition at 20 µg/mL (Pseudomonas aeruginosa [14]; 20 µg/mL) [mm] | zone of inhibition at 20 µg/mL (Staphylococcus aureus [21]) [mm] | further results
1 | CC1=C(C(=O)O)N2C(=O)[C@@H](NC(=O)[C@H](N)C3=CCC=CC3)[C@H]2SC1 [Cephradine, reference compound] | 320 (≈ 916 µM) | > 400 | > 400 | > 400 |  |  |  |  |  |  |  |  |  |  |  | 
2 | CN1CCN(C(=O)Nc2ccccc2)CC1 [Compound 21, 4-Methyl-N-phenylpiperazine-1-carboxamide] |  |  |  |  | 38.5 ± 0.17 | 128 to 130 | 91.6 ± 0.112 |  |  |  |  |  |  |  |  | zone of inhibition at 20 µg/mL (Candida albicans [5]): 3 mm; zone of inhibition at 20 µg/mL (Aspergillus fumagitus [6]; Aspergillus): 2 mm; cytotoxicity at 100 µM ([7]; HCT-116, 48 h): ≥ 65%; cell cycle arrest (phase) (HCT-116 cells [8]): weaker than those of compound 13; early apoptosis (HCT-116 cells [9]): 0.99%; late apoptosis (HCT-116 cells [9]): 0.44%; cytotoxicity at 100 µM ([10]; Homo sapiens, MCF7, 48 h): ≥ 51%; Cytotoxicity (%) [11]: 47.2%; cytotoxicity at 48 h, 100 µM (MTT cytotoxicity assay): 38.9%; zone of inhibition at 20 µg/mL (Bacillus subtilis [12]): 4 mm; zone of inhibition at 20 µg/mL (Klebsiella pneumonia [13]): 3 mm; zone of inhibition at 20 µg/mL (Pseudomonas aeruginosa [14]): 2 mm
3 | O=C(Nc1ccccc1)N1CCCCC1 [Compound 22, N-phenylpiperidine-1-carboxamide] | 10 (≈ 49 µM) | 40 (≈ 196 µM) | 80 (≈ 392 µM) | 40 (≈ 196 µM) |  | 190 to 192 | 91.6 ± 0.112 | 5 | 4 | 5 (≈ 24.5 µM) | 10 (≈ 49 µM) | 5 | 3 | 3 | 2 | Lipid peroxidation (Bacillus subtilis [15]): 264.8%; Lipid peroxidation (Klebsiella pneumonia [16]): 191.3%; Lipid peroxidation (Pseudomonas aeruginosa [17]): 170%; Lipid peroxidation (Staphylococcus aureus [18]): 273.4%; early apoptosis (MCF-7 cells): 7.93%; late apoptosis (MCF-7 cells): 1.1%; cytotoxicity at 100 µM [10, 24]: ≥ 51%; IC50 ([10]; MCF-7, 48 h): 57.9 ± 0.122 µM
4 | Cc1ccc(NC(=O)N2CCCCC2)cc1 [Compound 17, N-(p-tolyl)piperidine-1-carboxamide] | 10 (≈ 45.8 µM) | 80 (≈ 366 µM) | 40 (≈ 183 µM) | 80 (≈ 366 µM) |  | 230 to 232 |  | 2 | 3 | 20 (≈ 91.6 µM) | 20 (≈ 91.6 µM) | 5 | 3 | 3 | 2 | 
5 | Cc1ccc(NC(=O)N2CCOCC2)cc1 [Compound 15, N-(p-tolyl)morpholine-4-carboxamide] | 40 (≈ 182 µM) | 20 (≈ 90.8 µM) | 20 (≈ 90.8 µM) | 40 (≈ 182 µM) |  | 165 to 167 |  | 4 | 2 | 10 (≈ 45.4 µM) | 20 (≈ 90.8 µM) | 2 | 4 | 4 | 2 | Lipid peroxidation (Bacillus subtilis [15]): 157.1%; Lipid peroxidation (Klebsiella pneumonia [16]): 108.6%; Lipid peroxidation (Pseudomonas aeruginosa [17]): 107%; Lipid peroxidation (Staphylococcus aureus [18]): 128.9%
6 | Cc1ccc(S(=O)(=O)NC(=O)N2CCOCC2)cc1 [Compound 10, N-tosylmorpholine-4-carboxamide] |  |  |  |  | 72.6 ± 0.13 | 210 to 211 |  |  | 2 |  |  | 2 | 2 |  | 4 | cytotoxicity at 100 µM [7, 25]: ≥ 65%; cytotoxicity at 48 h, 100 µM (MTT cytotoxicity assay; [26]): 19.7%
7 | Cc1ccc(S(=O)(=O)NC(=O)NC23CC4CC(CC(C4)C2)C3)cc1 [Compound 13, N-(adamantan-1-ylcarbamoyl)-4-methylbenzenesulfonamide] |  |  |  |  | 43.5 ± 0.15 |  | 62.4 ± 0.128 | 3 |  |  |  | 6 | 2 | 3 | 2 | cytotoxicity at 100 µM [7, 25]: ≥ 65%; early apoptosis (HCT-116 cells [9]): 45.07%; late apoptosis (HCT-116 cells [9]): 0.42%; early apoptosis (MCF-7 cells): 2.24%; late apoptosis (MCF-7 cells): 0.58%; cytotoxicity at 100 µM [10, 24]: ≥ 51%; cytotoxicity at 48 h, 100 µM (MTT cytotoxicity assay; [26]): 2.7%

Reference: publication PMC11224357, “Green, facile synthesis and evaluation of unsymmetrical carbamide derivatives as antimicrobial and anticancer agents with mechanistic insights” (Scientific Reports, 2024)
